Laboratory results reported in ChEMBL document CHEMBL5705888, “Substrate specificity and inhibitors of LRRK2, a protein kinase mutated in Parkinson's disease” (Biochem J, 2009).

Assays:
[1] = biological target: Dual specificity mitogen-activated protein kinase kinase 1 (Homo sapiens) (UniProt Q02750); experiment: Inhibition of MKK1 (unknown origin) at 10 uM incubated for 30 mins in presence of [gamma-33P]ATP by multidrop micro reagent based assay relative to control
[2] = biological target: Tyrosine-protein kinase Yes (Homo sapiens) (UniProt P07947); experiment: Inhibition of YES1 (unknown origin) at 10 uM incubated for 30 mins in presence of [gamma-33P]ATP by multidrop micro reagent based assay relative to control; values are per cent of control
[3] = biological target: T1, Dual specificity tyrosine-phosphorylation-regulated kinase 2 (Homo sapiens) (UniProt Q92630); experiment: Inhibition of DYRK2 (unknown origin) at 10 uM incubated for 30 mins in presence of [gamma-33P]ATP by multidrop micro reagent based assay relative to control; values are per cent of control
T1 sequence (whole entry): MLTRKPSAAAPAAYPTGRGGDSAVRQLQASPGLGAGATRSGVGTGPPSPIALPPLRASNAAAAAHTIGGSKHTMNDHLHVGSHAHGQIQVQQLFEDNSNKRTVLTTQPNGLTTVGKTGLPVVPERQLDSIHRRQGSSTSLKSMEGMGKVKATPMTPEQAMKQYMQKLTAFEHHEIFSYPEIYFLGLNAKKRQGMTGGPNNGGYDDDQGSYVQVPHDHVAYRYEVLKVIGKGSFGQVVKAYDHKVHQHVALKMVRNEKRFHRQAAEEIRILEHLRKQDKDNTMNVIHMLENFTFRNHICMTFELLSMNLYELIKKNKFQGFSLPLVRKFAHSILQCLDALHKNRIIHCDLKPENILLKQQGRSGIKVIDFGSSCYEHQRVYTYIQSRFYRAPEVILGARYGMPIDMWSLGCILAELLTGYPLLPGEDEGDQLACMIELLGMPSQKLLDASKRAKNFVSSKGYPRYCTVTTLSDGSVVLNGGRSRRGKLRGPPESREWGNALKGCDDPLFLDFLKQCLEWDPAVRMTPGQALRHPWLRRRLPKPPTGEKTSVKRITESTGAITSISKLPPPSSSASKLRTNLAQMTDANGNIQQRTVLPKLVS

[4] = biological target: Myosin light chain kinase, smooth muscle (Homo sapiens) (UniProt Q15746); experiment: Inhibition of SmMLCK (unknown origin) at 10 uM incubated for 30 mins in presence of [gamma-33P]ATP by multidrop micro reagent based assay relative to control; values are per cent of control
[5] = biological target: Aurora kinase B (Homo sapiens) (UniProt Q96GD4); experiment: Inhibition of Aurora B kinase (unknown origin) at 10 uM incubated for 30 mins in presence of [gamma-33P]ATP by multidrop micro reagent based assay relative to control; values are per cent of control
[6] = biological target: Serine/threonine-protein kinase PAK 4 (Homo sapiens) (UniProt O96013); experiment: Inhibition of PAK4 (unknown origin) at 1 uM incubated for 30 mins in presence of [gamma-33P]ATP by multidrop micro reagent based assay relative to control
[7] = biological target: T2, Dual specificity protein kinase TTK (Homo sapiens) (UniProt P33981); experiment: Inhibition of TTK (unknown origin) at 1 uM incubated for 30 mins in presence of [gamma-33P]ATP by multidrop micro reagent based assay relative to control; values are per cent of control
T2 sequence (whole entry): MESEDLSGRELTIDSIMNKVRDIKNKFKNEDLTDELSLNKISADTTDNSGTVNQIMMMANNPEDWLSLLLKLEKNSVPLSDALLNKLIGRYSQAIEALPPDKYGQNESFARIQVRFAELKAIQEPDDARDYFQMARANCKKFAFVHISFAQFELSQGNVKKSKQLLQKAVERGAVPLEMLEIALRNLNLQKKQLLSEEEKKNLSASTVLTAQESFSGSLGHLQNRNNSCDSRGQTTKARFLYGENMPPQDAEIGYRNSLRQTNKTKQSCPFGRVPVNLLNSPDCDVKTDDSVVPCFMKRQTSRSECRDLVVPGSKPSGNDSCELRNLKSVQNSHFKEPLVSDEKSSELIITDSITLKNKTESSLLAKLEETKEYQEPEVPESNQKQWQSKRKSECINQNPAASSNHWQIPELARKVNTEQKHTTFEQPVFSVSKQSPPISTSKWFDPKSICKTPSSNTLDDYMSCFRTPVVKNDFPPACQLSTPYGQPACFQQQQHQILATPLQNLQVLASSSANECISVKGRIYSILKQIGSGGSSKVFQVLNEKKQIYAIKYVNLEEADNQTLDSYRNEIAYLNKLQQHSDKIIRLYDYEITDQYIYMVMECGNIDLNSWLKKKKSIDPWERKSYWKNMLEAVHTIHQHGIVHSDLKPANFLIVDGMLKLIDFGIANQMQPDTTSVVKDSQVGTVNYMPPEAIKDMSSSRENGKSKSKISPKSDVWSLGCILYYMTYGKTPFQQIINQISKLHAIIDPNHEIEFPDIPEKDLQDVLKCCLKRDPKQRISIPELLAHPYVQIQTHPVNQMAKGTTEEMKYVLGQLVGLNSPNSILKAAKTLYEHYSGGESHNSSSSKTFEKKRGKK

[8] = biological target: Serine/threonine-protein kinase pim-1 (Homo sapiens) (UniProt P11309); experiment: Inhibition of PIM1 (unknown origin) at 1 uM incubated for 30 mins in presence of [gamma-33P]ATP by multidrop micro reagent based assay relative to control; values are per cent of control
[9] = biological target: T3, Dual specificity tyrosine-phosphorylation-regulated kinase 3 (Homo sapiens) (UniProt O43781); experiment: Inhibition of DYRK3 (unknown origin) at 1 uM incubated for 30 mins in presence of [gamma-33P]ATP by multidrop micro reagent based assay relative to control; values are per cent of control
T3 sequence (whole entry): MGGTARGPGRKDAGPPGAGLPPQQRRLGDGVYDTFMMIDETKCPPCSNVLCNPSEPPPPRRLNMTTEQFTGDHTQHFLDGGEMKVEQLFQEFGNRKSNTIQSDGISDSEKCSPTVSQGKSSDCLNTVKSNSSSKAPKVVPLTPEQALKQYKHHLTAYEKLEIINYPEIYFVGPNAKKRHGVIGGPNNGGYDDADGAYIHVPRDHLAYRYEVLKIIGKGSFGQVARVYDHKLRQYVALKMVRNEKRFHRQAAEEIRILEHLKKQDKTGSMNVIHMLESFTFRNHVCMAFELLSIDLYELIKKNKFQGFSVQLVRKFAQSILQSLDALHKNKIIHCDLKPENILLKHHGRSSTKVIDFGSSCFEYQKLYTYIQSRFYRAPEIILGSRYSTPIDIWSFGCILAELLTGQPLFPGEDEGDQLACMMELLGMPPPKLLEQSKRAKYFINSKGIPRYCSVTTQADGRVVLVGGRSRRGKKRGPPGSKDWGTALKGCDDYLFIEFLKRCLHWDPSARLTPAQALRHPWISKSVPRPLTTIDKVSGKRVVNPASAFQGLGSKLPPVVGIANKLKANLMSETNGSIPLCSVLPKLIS

Serine/threonine-protein kinase pim-1 (Homo sapiens), sequence (P11309 whole entry, looked up): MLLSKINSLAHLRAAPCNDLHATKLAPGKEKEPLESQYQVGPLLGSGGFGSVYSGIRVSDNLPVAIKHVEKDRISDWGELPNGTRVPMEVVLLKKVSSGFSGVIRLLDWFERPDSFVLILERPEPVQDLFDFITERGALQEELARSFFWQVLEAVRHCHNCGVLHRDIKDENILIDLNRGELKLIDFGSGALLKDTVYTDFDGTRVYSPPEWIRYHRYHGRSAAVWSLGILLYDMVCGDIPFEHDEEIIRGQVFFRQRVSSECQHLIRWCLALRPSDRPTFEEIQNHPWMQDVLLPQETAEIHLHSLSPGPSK
Tyrosine-protein kinase Yes (Homo sapiens), sequence (P07947 2-543 limits assumed): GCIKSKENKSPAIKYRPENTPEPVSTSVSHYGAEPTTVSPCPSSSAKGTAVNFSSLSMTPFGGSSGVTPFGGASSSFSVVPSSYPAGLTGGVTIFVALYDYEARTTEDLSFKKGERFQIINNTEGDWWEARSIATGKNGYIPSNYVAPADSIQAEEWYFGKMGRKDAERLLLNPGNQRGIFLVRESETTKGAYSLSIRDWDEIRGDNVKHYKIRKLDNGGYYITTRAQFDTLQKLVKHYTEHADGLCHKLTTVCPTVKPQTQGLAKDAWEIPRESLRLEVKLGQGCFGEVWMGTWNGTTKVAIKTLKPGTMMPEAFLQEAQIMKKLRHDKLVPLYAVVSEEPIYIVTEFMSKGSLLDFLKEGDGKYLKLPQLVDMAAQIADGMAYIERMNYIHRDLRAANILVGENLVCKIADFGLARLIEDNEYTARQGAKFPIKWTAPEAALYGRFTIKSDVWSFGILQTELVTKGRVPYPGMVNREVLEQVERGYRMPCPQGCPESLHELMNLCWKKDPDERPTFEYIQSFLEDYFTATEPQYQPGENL
Aurora kinase B (Homo sapiens), sequence (Q96GD4 whole entry): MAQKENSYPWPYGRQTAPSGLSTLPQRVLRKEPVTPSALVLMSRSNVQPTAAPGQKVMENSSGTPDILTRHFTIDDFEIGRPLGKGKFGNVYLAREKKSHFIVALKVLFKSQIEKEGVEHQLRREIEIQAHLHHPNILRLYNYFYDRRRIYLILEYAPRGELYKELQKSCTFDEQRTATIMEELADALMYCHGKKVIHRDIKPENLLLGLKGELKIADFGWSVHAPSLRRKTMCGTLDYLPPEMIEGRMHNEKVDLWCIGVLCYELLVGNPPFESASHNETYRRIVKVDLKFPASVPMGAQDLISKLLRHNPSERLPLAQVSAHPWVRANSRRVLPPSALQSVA
Dual specificity mitogen-activated protein kinase kinase 1 (Homo sapiens), sequence (Q02750 whole entry): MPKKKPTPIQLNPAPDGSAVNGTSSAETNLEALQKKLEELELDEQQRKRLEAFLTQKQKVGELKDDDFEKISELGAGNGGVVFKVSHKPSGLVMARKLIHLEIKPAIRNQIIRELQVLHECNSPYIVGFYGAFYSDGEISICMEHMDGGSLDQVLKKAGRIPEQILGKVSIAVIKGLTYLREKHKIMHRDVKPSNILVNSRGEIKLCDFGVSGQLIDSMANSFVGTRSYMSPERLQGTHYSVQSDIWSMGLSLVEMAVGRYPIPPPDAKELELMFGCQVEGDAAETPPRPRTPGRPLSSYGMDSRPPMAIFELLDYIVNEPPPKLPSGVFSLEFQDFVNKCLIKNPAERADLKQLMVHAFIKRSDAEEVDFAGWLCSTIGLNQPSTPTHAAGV
Serine/threonine-protein kinase PAK 4 (Homo sapiens), sequence (O96013 whole entry, looked up): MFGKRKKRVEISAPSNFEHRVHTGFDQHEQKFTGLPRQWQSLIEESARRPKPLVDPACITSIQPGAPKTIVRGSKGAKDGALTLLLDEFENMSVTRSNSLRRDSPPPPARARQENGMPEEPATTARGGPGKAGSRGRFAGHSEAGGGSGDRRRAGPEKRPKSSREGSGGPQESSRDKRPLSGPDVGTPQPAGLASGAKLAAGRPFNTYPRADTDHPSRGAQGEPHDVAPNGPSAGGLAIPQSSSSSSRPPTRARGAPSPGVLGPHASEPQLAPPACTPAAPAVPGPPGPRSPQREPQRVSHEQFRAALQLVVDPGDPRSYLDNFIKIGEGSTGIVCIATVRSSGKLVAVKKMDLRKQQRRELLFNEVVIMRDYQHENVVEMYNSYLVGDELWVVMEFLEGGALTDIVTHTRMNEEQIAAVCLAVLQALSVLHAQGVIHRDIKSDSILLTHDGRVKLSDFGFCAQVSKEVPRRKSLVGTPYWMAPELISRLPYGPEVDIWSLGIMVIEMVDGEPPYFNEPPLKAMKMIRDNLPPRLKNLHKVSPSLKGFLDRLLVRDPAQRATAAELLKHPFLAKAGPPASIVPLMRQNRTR
Myosin light chain kinase, smooth muscle (Homo sapiens), sequence (Q15746 whole entry): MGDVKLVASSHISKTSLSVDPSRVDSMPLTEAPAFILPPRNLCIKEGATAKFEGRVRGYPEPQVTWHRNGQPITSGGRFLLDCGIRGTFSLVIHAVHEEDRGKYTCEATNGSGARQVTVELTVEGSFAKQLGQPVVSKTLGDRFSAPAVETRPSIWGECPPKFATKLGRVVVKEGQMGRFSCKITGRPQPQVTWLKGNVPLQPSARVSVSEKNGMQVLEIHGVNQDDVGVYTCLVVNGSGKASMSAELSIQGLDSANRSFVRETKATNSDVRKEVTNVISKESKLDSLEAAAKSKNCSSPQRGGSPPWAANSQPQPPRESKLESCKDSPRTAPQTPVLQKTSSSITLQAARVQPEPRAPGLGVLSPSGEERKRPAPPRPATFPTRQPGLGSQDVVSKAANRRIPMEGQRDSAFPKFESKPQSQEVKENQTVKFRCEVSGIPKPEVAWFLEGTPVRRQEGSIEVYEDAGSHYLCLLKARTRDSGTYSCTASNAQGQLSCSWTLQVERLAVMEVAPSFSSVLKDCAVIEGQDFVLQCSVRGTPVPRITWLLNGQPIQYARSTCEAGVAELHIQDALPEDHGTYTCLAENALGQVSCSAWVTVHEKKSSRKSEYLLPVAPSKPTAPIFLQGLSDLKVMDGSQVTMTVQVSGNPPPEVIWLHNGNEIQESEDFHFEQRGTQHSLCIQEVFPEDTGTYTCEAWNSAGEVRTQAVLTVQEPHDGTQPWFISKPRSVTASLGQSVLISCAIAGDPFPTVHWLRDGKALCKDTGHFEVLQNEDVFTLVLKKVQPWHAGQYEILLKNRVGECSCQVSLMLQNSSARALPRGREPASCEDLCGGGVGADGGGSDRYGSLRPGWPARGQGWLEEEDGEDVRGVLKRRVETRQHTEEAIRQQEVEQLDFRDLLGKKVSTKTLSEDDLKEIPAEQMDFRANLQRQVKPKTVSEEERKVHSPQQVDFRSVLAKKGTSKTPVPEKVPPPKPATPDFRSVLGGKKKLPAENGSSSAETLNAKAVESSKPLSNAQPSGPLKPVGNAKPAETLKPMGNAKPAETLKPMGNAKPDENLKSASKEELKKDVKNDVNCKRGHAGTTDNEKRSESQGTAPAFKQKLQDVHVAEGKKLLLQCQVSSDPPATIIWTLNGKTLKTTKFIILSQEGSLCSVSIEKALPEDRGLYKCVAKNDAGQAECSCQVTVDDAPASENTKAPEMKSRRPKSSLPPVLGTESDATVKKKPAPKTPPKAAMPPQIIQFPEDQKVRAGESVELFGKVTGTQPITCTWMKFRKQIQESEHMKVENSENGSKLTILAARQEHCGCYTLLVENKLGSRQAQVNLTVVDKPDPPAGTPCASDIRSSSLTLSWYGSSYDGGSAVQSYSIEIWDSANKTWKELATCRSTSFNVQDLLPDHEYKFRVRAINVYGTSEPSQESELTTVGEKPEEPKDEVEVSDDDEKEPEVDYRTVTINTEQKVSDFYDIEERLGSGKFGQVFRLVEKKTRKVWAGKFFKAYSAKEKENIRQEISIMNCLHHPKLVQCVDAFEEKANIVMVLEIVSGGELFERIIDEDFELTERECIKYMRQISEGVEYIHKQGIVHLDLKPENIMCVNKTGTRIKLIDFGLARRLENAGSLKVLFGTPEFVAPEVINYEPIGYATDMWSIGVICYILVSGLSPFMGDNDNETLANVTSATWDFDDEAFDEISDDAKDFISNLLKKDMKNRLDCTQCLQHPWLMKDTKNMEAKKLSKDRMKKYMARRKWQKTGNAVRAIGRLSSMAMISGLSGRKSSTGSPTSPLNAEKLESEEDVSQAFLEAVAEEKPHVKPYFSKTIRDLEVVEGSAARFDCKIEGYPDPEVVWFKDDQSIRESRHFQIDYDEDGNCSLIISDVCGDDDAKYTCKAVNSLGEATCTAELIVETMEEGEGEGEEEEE

Row | SMILES | inhibition [1] [%] | residual activity [2] [%] | residual activity [3] [%] | residual activity [4] [%] | residual activity [5] [%] | residual activity [6] [%] | residual activity [7] [%] | residual activity [8] [%] | residual activity [9] [%]
1 | C[C@@H](N)[C@H]1CC[C@H](C(=O)Nc2ccncc2)CC1 | 71 | 96 | 92 | 70 | 79 |  |  |  | 
2 | CC1=C(C(=O)Nc2cc3cn[nH]c3cc2F)C(c2ccc(C(F)(F)F)cc2)CC(=O)N1 (stereo not drawn) |  |  |  |  |  | 95 | 83 | 89 | 94
3 | O=S(=O)(c1cccc2cnccc12)N1CCCNCC1 [FASUDIL] | 41 | 136 | 80 | 66 | 51 |  |  |  | 
4 | Cc1cncc2cccc(S(=O)(=O)N3CCCNC[C@@H]3C)c12 |  |  |  |  |  | 99 |  |  | 
5 | CCn1c(-c2nonc2N)nc2cnc(Oc3cccc(NC(=O)c4ccc(OCCN5CCOCC5)cc4)c3)cc21 [GSK-269962A] |  |  |  |  |  |  | 69 | 31 | 77
